Tested on: NCI-H196 complex spheroid viability
Assay: Anticancer human tumor NCI-H196 cell line growth inhibition [LSD1];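 further: spheroids exposed to agents for 7 days before readout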;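 on viability, T/C: 100% = DMSO vehicle control viability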
Settings: for IC50: curve of first compound; for viability, T/C: stronger effect = lower value
Outline: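 Drug combinations with the LSD1 inhibitor iadademstat tested on tumor cells co-cultured as spheroids with endothelial cells and mesenchymal stem cells. Concentrations descended in half-log increments from clinical Cmax or 10 microM.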

SMILES: CCc1c2c(nc3ccc(O)cc13)-c1cc3c(c(=O)n1C2)COC(=O)[C@]3(O)CC + NC1CC1c1ccc(-c2cccc(O)c2)cc1
- IC50 (second compound 0.1 µM): 8.32 nM
- IC50 (second compound 0.316 µM): 9.63 nM
- IC50 (second compound 1 µM): 9.19 nM
- IC50 (second compound 3.16 µM): 6.69 nM
- IC50 (second compound 10 µM): 5.92 nM
- viability, T/C (second compound 0.1 µM, first compound 0.000949 µM): 119%
- viability, T/C (second compound 0.1 µM, first compound 0.003 µM): 111%
- viability, T/C (second compound 0.1 µM, first compound 0.00949 µM): 42%
- viability, T/C (second compound 0.1 µM, first compound 0.03 µM): 4.2%
- viability, T/C (second compound 0.1 µM, first compound 0.0949 µM): 1.09%
- viability, T/C (second compound 0.1 µM, first compound 0.3 µM): 0.82%
- viability, T/C (second compound 0.316 µM, first compound 0.000949 µM): 107%
- viability, T/C (second compound 0.316 µM, first compound 0.003 µM): 93.1%
- viability, T/C (second compound 0.316 µM, first compound 0.00949 µM): 52.4%
- viability, T/C (second compound 0.316 µM, first compound 0.03 µM): 4.27%
- viability, T/C (second compound 0.316 µM, first compound 0.0949 µM): 1.53%
- viability, T/C (second compound 0.316 µM, first compound 0.3 µM): 1.11%
- viability, T/C (second compound 1 µM, first compound 0.000949 µM): 112%
- viability, T/C (second compound 1 µM, first compound 0.003 µM): 94.9%
- viability, T/C (second compound 1 µM, first compound 0.00949 µM): 51.1%
- viability, T/C (second compound 1 µM, first compound 0.03 µM): 3.65%
- viability, T/C (second compound 1 µM, first compound 0.0949 µM): 1.2%
- viability, T/C (second compound 1 µM, first compound 0.3 µM): 0.86%
- viability, T/C (second compound 3.16 µM, first compound 0.000949 µM): 102%
- viability, T/C (second compound 3.16 µM, first compound 0.003 µM): 81.2%
- viability, T/C (second compound 3.16 µM, first compound 0.00949 µM): 37.8%
- viability, T/C (second compound 3.16 µM, first compound 0.03 µM): 2.23%
- viability, T/C (second compound 3.16 µM, first compound 0.0949 µM): 1.01%
- viability, T/C (second compound 3.16 µM, first compound 0.3 µM): 0.7%
- viability, T/C (second compound 10 µM, first compound 0.000949 µM): 90.9%
- viability, T/C (second compound 10 µM, first compound 0.003 µM): 82.7%
- viability, T/C (second compound 10 µM, first compound 0.00949 µM): 27.4%
- viability, T/C (second compound 10 µM, first compound 0.03 µM): 1.9%
- viability, T/C (second compound 10 µM, first compound 0.0949 µM): 0.86%
- viability, T/C (second compound 10 µM, first compound 0.3 µM): 0.72%

SMILES: CC1COCCN1c1cc(-c2ccnn2C)c2ccnc(-c3ccn[nH]3)c2n1 (stereo not given) + NC1CCC(NC2CC2c2ccccc2)CC1
- IC50 (second compound 0.1 µM): 296 nM
- IC50 (second compound 0.316 µM): 366 nM
- IC50 (second compound 1 µM): 310 nM
- IC50 (second compound 3.16 µM): 771 nM
- IC50 (second compound 10 µM): 266 nM
- viability, T/C (second compound 0.1 µM, first compound 0.00316 µM): 84.7%
- viability, T/C (second compound 0.1 µM, first compound 0.01 µM): 84.3%
- viability, T/C (second compound 0.1 µM, first compound 0.0316 µM): 80%
- viability, T/C (second compound 0.1 µM, first compound 0.1 µM): 58.1%
- viability, T/C (second compound 0.1 µM, first compound 0.316 µM): 54.1%
- viability, T/C (second compound 0.1 µM, first compound 1 µM): 44.2%
- viability, T/C (second compound 0.316 µM, first compound 0.00316 µM): 81%
- viability, T/C (second compound 0.316 µM, first compound 0.01 µM): 86.4%
- viability, T/C (second compound 0.316 µM, first compound 0.0316 µM): 75.2%
- viability, T/C (second compound 0.316 µM, first compound 0.1 µM): 59.8%
- viability, T/C (second compound 0.316 µM, first compound 0.316 µM): 51.7%
- viability, T/C (second compound 0.316 µM, first compound 1 µM): 47.1%
- viability, T/C (second compound 1 µM, first compound 0.00316 µM): 73.6%
- viability, T/C (second compound 1 µM, first compound 0.01 µM): 78.7%
- viability, T/C (second compound 1 µM, first compound 0.0316 µM): 74.2%
- viability, T/C (second compound 1 µM, first compound 0.1 µM): 57.7%
- viability, T/C (second compound 1 µM, first compound 0.316 µM): 51.8%
- viability, T/C (second compound 1 µM, first compound 1 µM): 47.6%
- viability, T/C (second compound 3.16 µM, first compound 0.00316 µM): 88%
- viability, T/C (second compound 3.16 µM, first compound 0.01 µM): 82.6%
- viability, T/C (second compound 3.16 µM, first compound 0.0316 µM): 69.9%
- viability, T/C (second compound 3.16 µM, first compound 0.1 µM): 60.1%
- viability, T/C (second compound 3.16 µM, first compound 0.316 µM): 53.9%
- viability, T/C (second compound 3.16 µM, first compound 1 µM): 48.5%
- viability, T/C (second compound 10 µM, first compound 0.00316 µM): 86.7%
- viability, T/C (second compound 10 µM, first compound 0.01 µM): 78.8%
- viability, T/C (second compound 10 µM, first compound 0.0316 µM): 74.5%
- viability, T/C (second compound 10 µM, first compound 0.1 µM): 56.2%
- viability, T/C (second compound 10 µM, first compound 0.316 µM): 49%
- viability, T/C (second compound 10 µM, first compound 1 µM): 46.5%

— PubChem BioAssay AID1918958 (Molecular Pharmacology Branch, DTP, NCI, 2023)
